Data set [1] deals with K101E drug-resistant virus. Put plainly: Activity against drug-resistant virus K101E. The format is cell-based, HIV. The following applies: Human immunodeficiency virus 1, read-out: Drug-resistant viruses EC50, K101E.
The nature of data set [2]: TZM-bl cytotoxicity assay (XTT). The format is cell-based. The following applies: human, TZM-bl cells, read-out: CC50, concentration effective to inhibit the growth of half of cells. Here is the method:
The assay was carried out by reference to the document (Dang, Z, et al. J. Med. Chem. 2009, 52, 7887-7891). In particular, in a 96-well cell culture plate, solutions of Compounds 1-57 at different concentrations (100 μl) were mixed with an equivalent volume of TZM-bl cells (from National Institutes of Health (NIH)) (5×10^5/mL), and were incubated at 37° C. for 4 d. 50 μl of freshly prepared XTT solution (1 mg/mL) containing 0.02 μM PMS was added. Optical density at 450 nm was measured 4 h later.
(Tetrazolium dyes change colour on reduction, which living cells bring about.)

Data set [3] deals with NL4-3 virus. Put plainly: Anti-HIV activity assay (TZM-bl cell model), NL4-3 wild-type. The format is cell-based. The note with it: Human immunodeficiency virus 1, NL43, TZM-bl, read-out: EC50, concentration effective to inhibit the replication of half of viruses. Here is the method: (§1) The assay was carried out by reference to the document (Dang, Z, et al. J. Med. Chem. 2009, 52, 7887-7891). In particular, in a 96-well cell culture plate, solutions of the compounds to be tested at different concentrations were mixed with TZM-bl cells (from National Institutes of Health (NIH)) infected with 200 TCID50 NL4-3 virus, respectively. 2 days later, the culture medium was removed, 100 μl of Bright Glo reagent was added to each well, and Victor 2 luminometer was used to detect the […] of the cells.

The test system of data set [4] is NL4-3 virus (HIV, wild-type). The data set is described as above. The format is cell-based. The following applies: human, TZM-bl cells infected with HIV-1 NL4-3 virus; CC50 (TZM-bl) / EC50 (NL4-3); read-out: SI, selective index, ratio of toxic CC50 value to active EC50 value. Here is the method: as §1
Data set [5] can be described thus: Incubation experiment of human liver microsomes. The format is in vitro ADME. The note with it: for half-life: read-out: HLM t1/2. (In general: Microsomes from liver hold many membrane-bound enzymes, among them those of drug oxidation.)
The subject of data set [6] is multi-drug resistant viral strain of HIV-1 RT (RTMDR). The data set is described as follows: Activity against drug-resistant virus RTMDR. The format is cell-based. The note with it: Human immunodeficiency virus 1, read-out: Drug-resistant viruses EC50, RTMDR.
Data set [7] has as its system E138K drug-resistant virus. Put plainly: Activity against drug-resistant virus E138K. The format is cell-based, HIV. The note with it: Human immunodeficiency virus 1, read-out: Drug-resistant viruses EC50, E138K.
The nature of data set [8]: Water-solubility at pH2.0. The note with it: for solubility: aqueous medium (water) at pH 2.0, pH 2, simulated gastric fluid. The format is physicochemical.

Converted amounts (≈) assume the structure as drawn.

`Cc1cc(CCC#N)cc(C)c1Oc1cc(Nc2ccc(C#N)cc2)c(N)cc1C(F)(F)F` [Compound 2, 5-(4″-cyanoethyl-2″,6″-dimethylphenoxy)-N^1-(4′-cyanophenyl)-4-trifluoromethyl-1,2-phenylenediamine]: the EC50 in data set [1] is 47.6 nM; in data set [3] it was 1.13 nM; in data set [6], 3.2 nM; in data set [7], 34.4 nM. In addition, the CC50 at 4 d in data set [2] is over 7100 nM. Moreover, the selectivity ratio at 2 days in data set [4] is over 6280. Also, in data set [5], the “HLM t1/2” value is 55.7 min. The same compound had a Water-solubility in data set [8] of 0.33 µg/mL.
The solubility is the dissolved amount per volume that the medium holds. Read a low solubility as little dissolved substance. In the case of `COC(=O)c1cc(N)c(Nc2ccc(C#N)cc2)cc1Oc1c(C)cc(CCC#N)cc1C` [Compound 4, 5-(4″-cyanoethyl-2″,6″-dimethylphenoxy)-N^1-(4′-cyanophenyl)-4-methoxycarbonyl-1,2-phenylenediamine], the EC50 in data set [1] is 14 nM; in data set [3], 4.3 nM; in data set [6], 4.1 nM; in data set [7] it was 7.5 nM. For the same compound, the CC50 at 4 d in data set [2] was over 22700 nM. In addition, in data set [4], the selectivity ratio at 2 days was over 5260. Further, the “HLM t1/2” value in data set [5] turned out to be 186 min. Also, the solubility in data set [8] was 1.21 µg/mL (≈ 2.75 µM).
With `Cc1cc(CCC#N)cc(C)c1Oc1cc(Nc2ccc(C#N)cc2)c(N)cc1CO` [Compound 6, 5-(4″-cyanoethyl-2″,6″-dimethylphenoxy)-N^1-(4′-cyanophenyl)-4-hydroxymethyl-1,2-phenylenediamine], the EC50 is 3.4 nM in data set [1], 0.39 nM in data set [3], 1.8 nM in data set [6] and 2.9 nM in data set [7]. In data set [2], the CC50 at 4 d was over 23800 nM. Also, in data set [4], the selectivity ratio at 2 days is 61000. In data set [5], the “HLM t1/2” value is 20.9 min. In data set [8], the solubility was 18.8 µg/mL (≈ 45.6 µM).
With `CNC(=O)c1cc(N)c(Nc2ccc(C#N)cc2)cc1Oc1c(C)cc(CCC#N)cc1C` [Compound 12, 5-(4″-cyanoethyl-2″,6″-dimethylphenoxy)-N^1-(4′-cyanophenyl)-4-(N-methyl-carbamoyl)-1,2-phenylenediamine], the values for the EC50 in data set [1] and in data set [3] were 14 nM and 2.73 nM, respectively. In addition, the CC50 at 4 d in data set [2] was over 9100 nM. The selectivity ratio at 2 days in data set [4] was over 3330. Moreover, the “HLM t1/2” value in data set [5] was determined as 55.7 min. Also, in data set [8], the solubility is 8.28 µg/mL (≈ 18.8 µM).
As to `COc1cc(CCC#N)cc(Br)c1Oc1ccc(N)c(Nc2ccc(C#N)cc2)n1` [Compound 26A], the EC50 in data set [1] is 3.89 nM; in data set [3] it was 3.25 nM; in data set [6] it was 3.46 nM; in data set [7], 6.93 nM. Also, in data set [2], the CC50 at 4 d was determined as 21000 nM. The selectivity ratio at 2 days in data set [4] was determined as 6560. Moreover, in data set [5], the half-life came out at 54.7 min. The same compound registered a solubility in data set [8] of 1.77 µg/mL (≈ 3.81 µM).
Consider `N#CCCc1cc(Br)c(Oc2ccc(N)c(Nc3ccc(C#N)cc3)n2)c(Br)c1` [Compound 28], for which the EC50 in data set [1] was 7.63 nM; in data set [3], 0.33 nM; in data set [6], 0.74 nM; in data set [7] it was 4.11 nM. The CC50 at 4 d in data set [2] is 8210 nM. Further, the selectivity ratio at 2 days in data set [4] came to 24900. For the same compound, in data set [5], the half-life was 23 min. The solubility in data set [8] was 3.26 µg/mL (≈ 6.35 µM).
For the compound `Cc1cc(CCC#N)cc(C)c1Oc1cc(Nc2ccc(C#N)cc2)c(N)cc1CNC1CC1` [Compound 34, 5-(4″-cyanoethyl-2″,6″-dimethylphenoxy)-N^1-(4′-cyanophenyl)-4-(2-cyclopropylaminomethyl)-1,2-phenylenediamine], the EC50 was 27.3 nM in data set [1], 0.53 nM in data set [3], 4.88 nM in data set [6] and 25.7 nM in data set [7]. Also, the CC50 at 4 d in data set [2] was over 5000 nM. Moreover, the selectivity ratio at 2 days in data set [4] is over 9430. Also, the half-life in data set [5] turned out to be 42 min. In data set [8], this compound returned a solubility of 9.11 µg/mL (≈ 20.2 µM).

The values above are taken from patent US9340492B2, “Meta-Diarylaniline or meta-diarylpyridinamine compound, preparation method and medical uses thereof” (INSTITUTE OF PHARMACOLOGY AND TOXICOLOGY ACADEMY OF …, priority 2012, dated 2016).
